Experimental data: PMC5473904, “Epigenetic and antitumor effects of platinum(IV)-octanoato conjugates” (Scientific Reports, 2017)

What was measured:
[1] = tested on: mitochondrial membrane potential Δψ m in HCT-116 cells; experiment: Mitochondrial membrane potential, TMRE staining and confocal microscopy; type: cell-based, human; details: HCT-116, 1 µM, 5 h
Experimental: The loss of Δψ m represents an early event in the apoptosis cascade that precedes the release of pro-apoptotic factors such as cytochrome c and the activation of effector caspases.
HCT-116 cells were seeded on glass bottom dishes (P50G-0-30-F, MatTek Co., Ashland, USA) at the density 3 × 10^5 cells per dish, cultured in RPMI-1640 medium (without phenol red) and incubated at 37 °C in a humidified 5% CO2 atmosphere overnight. The cells were subsequently treated with the compounds (1 μM) for 5 h. After this period, cells were washed twice with PBS and resuspended in staining medium (without Pt compound), supplemented with Hoechst 33258 and tetramethylrhodamine, ethyl ester (TMRE) from multiparametric apoptosis assay kit (Cayman Chemical, Michigan, USA) according to the manufacturer’s protocol. After 20 min of staining, the staining medium was replaced by a fresh medium (without staining dye and platinum compound).
Images of living cells were acquired with a Leica TSC SP-5X laser scanning confocal microscope (Leica Microsystems, Mannheim, Germany) using an HCX PL APO lambda blue 63.0 × 1.20 water UV objective lens corrected with an appropriate beam path (resolution 1024 × 1024, frequency 100 Hz). […] Quantification of the mean signal intensity associated with single cells was performed using software ImageJ v1.47, U.S. National Institutes of Health, Bethesda, Maryland, USA.

[2] = set-up: method as in PMID 25888926; details: valproato complexes; cited from earlier work
[3] = tested on: DNA methylation in HCT-116 cells; experiment: DNA methylation analysis (Imprint methylated DNA quantification kit); type: cell-based, human; details: HCT-116, 30 µM, 72 h
Experimental: Human colon adenocarcinoma cells HCT-116 were chosen as the model cellular system suitable for DNA methylation analysis because: (i) this human colorectal cancer cell line has been used as a prototypic model for analyses of the genetic basis of cancer, and the role of epigenetic changes in tumorigenesis; (ii) they have a propensity to both global DNA hypomethylation and to silence genes through promoter focal hypermethylation, [21]. HCT-116 cells were treated with the compounds at the concentrations indicated in Fig. 4A for 24 or 72 h and DNA was isolated for the complete methylation analysis as described in the experimental section. Decitabine (5-aza-2′-deoxycytidine), a hypomethylating agent which hypomethylates DNA by inhibiting DNMT, was used in these experiments as a […]. The IC50 values found for this agent in HCT-116 cells (the drug-treatment period was 72 h) was (7.5 ± 0.3) µM (Table 1).
Figure 4 Analysis of DNA methylation. (A) DNA was isolated from HCT-116 cells after the exposure to the agents at the concentrations indicated in the graph for 24 or 72 h. The levels of DNA methylation in the control was taken as 100%. The bars represent mean values from three independent experiments each performed in octuplicate. The error bars are the SDs. (B) DNMT activity in colon carcinoma cells HCT-116 treated for 24 h with the compounds tested in the present work. The DNMT activity in the control, untreated cells was taken as 100%. Error bars are the SDs and the stars at the top of bars denote a significant difference from the control with (*p < 0.05; **p < […]), calculated using […] student’s t-test. The bars represent mean values from three independent experiments, each performed in quadruplicate.
Human colon carcinoma cells (HCT-116) were seeded at the density 1.5 × 10^6 cells/dish. […] The DNA content in each sample was determined by UV spectrophotometry. DNA (200 ng) from the samples was loaded to the Imprint methylated DNA quantification kit (Sigma-Aldrich, USA). The level of methylated DNA was proportional to the absorbance measured at 450 nm.

## CC(=O)[O][Pt]([NH2])([NH2])([Cl])([Cl])[O]C(C)=O [Pt(IV)diAc, cis, cis, trans-[Pt(IV)(NH3)2Cl2(Ac)2]]
[1]
  Reduction in the fraction of cells with an intact Δψ m relative to untreated control: no reduction

## CCCC(CCC)C(=O)[O][Pt]([NH2])([NH2])([Cl])([Cl])[O]C(=O)C(CCC)CCC [Pt(IV)diVPA, cis, cis, trans-[Pt(IV)(NH3)2Cl2(VPA)2]]
[2]
  logP: 0.25

## N.N.[Cl][Pt][Cl] [cisplatin, reference compound]
[3]
  Change of DNA methylation: non-significant change
